Reference: US20220340983A1, “SYSTEMS AND ASSAYS FOR IDENTIFYING PU.1 INHIBITORS” (Massachustts Institute of Technology, priority 2019, published 2022)
Starred links: 1 amine or outer side, 2 acyl side, 3 side chain; linkers in the order of their positions; H or OH if unused. Positions of bridges follow the written chain, without caps; N, C: chain ends. Non-standard residues stand in square brackets, D forms with d. Residues, ends and D or L forms follow the SMILES beside them. Chains are numbered I, II in the order given. Actinocin(9to1) = Cc1c2oc3c(C)ccc(C(=O)[*:1])c3nc-2c(C(=O)[*:2])c(N)c1=O; NMeV = CN[C@H](C(=O)O)C(C)C; Sar = CNCC(=O)O

Legend:
[1] = tested on: BV2 PU.1-Luciferase cells; assay: Cell viability (Hoechst staining) in BV2 PU.1-Luciferase cells; type: cell-based, mouse
Description: The BV2 PU.1-Luciferase cells (referred to as “cells” from here onward) were plated into a 384-well plate, using an automatic dispenser, 2000 cells per well in 30 μL of media composed of RPMI (Sigma-Aldrich), 10% FBS, 1% PenStrep (50 mg/mL) and 1% G418 (50 mg/mL) was plated. […] For reproducibility, each pin array with 384 compounds was added to 4 plates of cells. The cells and compounds were incubated at 37° C. for a period of time sufficient for the compounds to have an effect on the cells (about 2 days). Subsequently, automatic of 30 μL of BrightGlo (Promega) was dispensed into 2 of the 4 plates, in order to lyse the cells and drive the luminescence reaction whereafter the luminescence intensity was measured by a plate reader (Perkin Elmer EnVision). The two other plates were fixed by automatically dispensing 30 μL of 10% formaldehyde with 2μL Hoechst per 1 mL formaldehyde which were left at room temperature for one hour, followed by plate reading (Acumen (TTPLabTech)). A compound transfer and treatment would be repeated if reproducibility between the luminescence plates and/or the fixed Hoechst plates was lacking. […] Luminescence values used were corrected for crosstalk. Hoechst values were total fluorescence area per well. Determination of a positive hit considered both the reduction of luminescence as well as a possible confounding reduction in cell viability. […]

[2] = tested on: HEK293 CMV-Luciferase cells; assay: Cell viability (Hoechst staining) in HEK293 CMV-Luciferase cells; conditions: for cell viability (Hoechst) (FIG. 2D): HEK293 CMV-Luciferase cell line, 1 μM; for cell viability (Hoechst-staining): HEK293 CMV-Luciferase line, 2-day incubation, actinomycin D, puromycin, 119113 10 μM, DB2313 2.5 μM
Description: Assays were conducted for percent luminescence and cell viability (Hoechst-staining) after a 2-day incubation under the following conditions. As negative controls pure DMSO and “mock” conditions (where nothing is added to the cells) were used.

PU.1 [3] = target: T1, PU.1 (Mus musculus, UniProt P17433); assay: Luciferase assay (luminescence) in BV2 PU.1-Luciferase reporter cells; type: cell-based; conditions: BV2 PU.1-Luciferase line, 2-day incubation; 119113 10 μM, DB2313 2.5 μM
T1 construct: endogenous in cells; host or cells: BV2 PU.1-Luciferase (mouse microglial BV2 with a 5xLBB-luciferase reporter integrated at ROSA26)

[4] = tested on: PU.1 dependent gene expression; assay: RT-qPCR of mRNA levels in BV2 PU.1-Luciferase cells (validation round 3); type: cell-based, mouse; conditions: 2-day treatment
[5] = tested on: HEK293 CMV-Luciferase cells; assay: Luminescence in HEK293 CMV-Luciferase control line (luciferase quencher counter-screen); type: cell-based
Source text: The IACS Selleck Known Bioactive library (2,100 compounds) was screened and there 35 hits were identified (˜1.7% hit rate), the Asinex1 library (12,000 compounds) was screened and 60 hits were identified (˜0.5% hit rate), and the ChemDiv6 library (44,000 compounds) was screened and 169 hits were identified (˜0.4% hit rate). The Selleck library contains drugs approved by the United States Food and Drug Administration (FDA) with known intracellular mechanisms of action which will give instant insight into pathways that block PU.1 activity. The Asinex1 and ChemDiv6 libraries contain molecules with unknown biological properties, but with low toxicity, high stability, and a broad structural diversity used to generate structure-activity-relationships (SAR) of the PU.1 inhibitors. SAR is used to design new drug libraries containing only molecules with similar structures as previous hits. In order to obtain the SAR, three rounds of validation were performed. In round 1, false-positive, non-specific luciferase quencher molecules were excluded using the commercially available HEK293 CMV-Luciferase line that constitutively expresses luciferase under the CMV promoter. In round 2, weak (non-significant) hits were eliminated according to degree of PU.1 inhibition in the absence of cell death. In round 3, drugs were selected that reduce PU.1-dependent gene expression with RT-qPCR.

PU.1 [6] = target: T1, PU.1; assay: Luciferase assay (luminescence) in BV2 PU.1-Luciferase reporter cells; type: cell-based; conditions: BV2 PU.1-Luciferase cells, 1 μM

SMILES | cell viability (Hoechst) (FIG. 2D) ([1]; BV2 PU.1-Luciferase cells, 1 μM) | cell viability (Hoechst-staining) ([1]; BV2 PU.1-Luciferase line, 2-day incubation, actinomycin D, puromycin, 119113 10 μM, DB2313 2.5 μM) | cell viability (Hoechst) (FIG. 2D) [2] | cell viability (Hoechst-staining) [2] | percent luminescence (PU.1 [3]) | mRNA levels Apoe [4] | mRNA levels IL1β [4] | mRNA levels Lucif. [4] | mRNA levels Spi1 [4] | mRNA levels Trem2 [4] | mRNA levels Tyrobp [4] | luminescence (FIG. 2D) ([5]; HEK293 CMV-Luciferase cell line, 1 μM) | percent luminescence ([5]; HEK293 CMV-Luciferase line, 2-day incubation, 119113 10 μM, DB2313 2.5 μM) | luminescence (FIG. 2D) (PU.1 [6])
Cc1c2oc3c(C)ccc(C(=O)N[C@@H]4C(=O)N[C@H](C(C)C)C(=O)N5CCC[C@H]5C(=O)N(C)CC(=O)N(C)[C@@H](C(C)C)C(=O)O[C@@H]4C)c3nc-2c(C(=O)N[C@@H]2C(=O)N[C@H](C(C)C)C(=O)N3CCC[C@H]3C(=O)N(C)CC(=O)N(C)[C@@H](C(C)C)C(=O)O[C@@H]2C)c(N)c1=O [Actinomycin D] (I: T[dV]P[Sar][NMeV] / II: T[dV]P[Sar][NMeV]; ester I:1-I:C, II:1-II:C; linker I:N-II:N via Actinocin(9to1)) | toxic | reduced cell viability | toxic | reduced cell viability | – | – | – | – | – | – | – | – | – | –
CC(C)N=C(N)c1ccc2nc(-c3ccc(OCc4cccc(COc5ccc(-c6nc7ccc(C(N)=NC(C)C)cc7[nH]6)cc5)c4F)cc3)[nH]c2c1 [DB2313, reference compound] | – | – | only in the BV2 PU.1-Luciferase line | no effect | reduction in luminescence | 0.600 multiples of 1× | 0.460 multiples of 1× | 0.340 multiples of 1× | 0.820 multiples of 1× | 1.030 multiples of 1× | 1.030 multiples of 1× | only in the BV2 PU.1-Luciferase line | no effect | reduced luminescence
